{
  "source": "patent EP1708721B1",
  "about": "“MYOCARDIAL PERFUSION IMAGING USING ADENOSINE RECEPTOR AGONISTS” (Gilead Sciences, Inc., priority 2004, dated 2005)",
  "key": {"[1]": {"tested_on": "subjects (27 men, 9 women)", "test": "Example 7: pharmacologic stress myocardial perfusion imaging protocol, adverse effects and hemodynamics", "type": "in vivo, human", "from_the_text": "36 subjects (27 men, 9 women; 67±10 years) were studied with two doses of CVT-3146 [400 mcg (n=18), 500 mcg (n=18)], administered as an IV bolus, as part of a pharmacologic stress myocardial perfusion imaging protocol."}, "[2]": {"tested_on": "subjects (26 men, 9 women)", "test": "Example 6: stress/rest SPECT myocardial perfusion imaging, adenosine versus CVT-3146", "type": "in vivo, human", "procedure": "To determine the ability of CVT-3146 to produce coronary hyperemia and accurately detect CAD, 35 subjects (26 men, 9 women; 67±10 years) underwent both A and CVT-3146 stress/rest MPI, with 10.0±9.1 days between studies. […] CVT-3146 [400 mcg (n=18), 500 mcg (n=17)] was administered as an IV bolus immediately followed by a saline flush, and then a Tc-99m radiopharmaceutical [sestamibi (n=34), tetrofosmin (n=1)]. SPECT images were uniformly processed, intermixed with control studies (normal and fixed-only defects), and interpreted by three observers in a blinded fashion using a 17-segment model. Quantitative analysis was also performed using 4D MSPECT. In addition to three separate readings, a consensus interpretation was performed and then a direct, same-screen comparison of A and CVT-3146 images undertaken to determine relative differences, using 5 regions per study."}, "humans": {"tested_on": "humans", "test": "Example 1: open label study, CBFv by Doppler flow wire after IV bolus in catheterization patients", "type": "in vivo", "procedure": "The purpose of this open label study was to determine the magnitude and duration of effect of CVT-3146 (10-500 µg) on CBFv in humans.\nMETHODS: Patients undergoing a clinically indicated coronary catheterization with no more than a 70% stenosis in any coronary artery and no more than a 50% stenosis of the study vessel had CBFv determined by Doppler flow wire. Study subject were selected after measuring baseline and peak CBFv after an intracoronary (IC) injection of 18 µg of Ado. Twenty-three patients, who were identified as meeting the study criteria of having a peak to baseline CBFv ratio of ≥ 2.5 in response to Adenosine, received a rapid (≤ 10 sec) peripheral IV bolus of CVT-3146; Doppler signals were stable and interpretable over the time-course of the increase in CBFv in 17 patients."}, "awake dogs": {"tested_on": "awake dogs", "test": "increase of coronary blood flow velocity (CBFv) in awake dogs, potency versus adenosine (background statement)", "type": "in vivo", "settings": "relative to adenosine"}, "awake rats": {"tested_on": "awake rats", "test": "Example 5: sympathoexcitation, heart rate, blood pressure and plasma catecholamines after i.v. bolus", "type": "in vivo", "procedure": "The present study was carried out to determine whether CVT-3146, a selective A2A adenosine receptor agonist, causes sympathoexcitation. CVT-3146 (0.31µg/kg-50 µg/kg) was given as a rapid i.v. bolus to awake rats and heart rate (HR) and blood pressure (BP) were monitored. CVT-3146 caused an increase in BP and systolic pressure (SP) at lower doses while at higher doses there was a decrease in BP and SP. […] The increase in HR was evident at the lowest dose of CVT-3146 at which there was no appreciable decrease in BP. ZM241385 (30 µg/kg , N=5), an A2A receptor antagonist, attenuated the decrease in BP (CVT-3146: 14±3%, ZM: 1±1 %) and the increase in HR (CVT: 27±3%, ZM: 18±3%) caused by CVT-3146. Pretreatment with metoprolol (MET, 1 mg/kg, n=5), a beta-blocker, attenuated the increase in HR (CVT: 27±3%, MET: 15±2%), but had no effect on hypotension caused by CVT-3146. In the presence of hexamethonium (HEX, 10 mg/kg, n=5), a ganglionic blocker, the tachycardia was prevented (CVT: 27±3%, HEX: -1±2%), but BP was further reduced (CVT: -11±2%, HEX: -49±5%)."}, "solubility in water": {"test": "solubility in water", "type": "physicochemical", "procedure": "CVT-3146 has solubility in water of about 50 micrograms/mL. Therefore, CVT-3146 can be dissolved and administered in water so long as the desired weight amount of CVT-3146 can be administered in an acceptable volume. For example, a preferred dose of about 400 micrograms can be administered in 8 mL of water. If this volume is too great for administration purposes, or if the pharmaceutical composition will be stored at other than room temperature (RT), then additional ingredients can be added to the composition to increase the solubility of CVT-3146 in the composition and/or to provide the resulting pharmaceutical composition with other improved properties such as improved stability and storage properties. Pharmaceutical compositions of this invention may include up to about 1 milligram/mL of CVT-3146. It is preferred that pharmaceutical compositions including CVT-3146 include from 50 to 250 micrograms/mL, and more preferably from 50 to 150 micrograms/mL of CVT-3146."}, "[3]": {"settings": "peak hemodynamic changes, mean±S.D., 400 and 500 mcg"}, "[4]": {"settings": "direct comparison of A and CVT-3146 images, 5 regions per study"}},
  "data": [
    {"compound": "CNC(=O)c1cnn(-c2nc(N)c3ncn([C@@H]4O[C@H](CO)[C@@H](O)[C@H]4O)c3n2)c1", "note": "[CVT-3146, (1-{9-[(4S,2R,3R,5R)-3,4-dihydroxy-5-(hydroxymethyl)oxolan-2-yl]-6-aminopurin-2-yl}pyrazol-4-yl)-N-methylcarboxamide]", "values": [
      {"measurement": "ST abnormalities developed", "setting": "[1]; 36 subjects", "result": 7, "unit": "pts"},
      {"measurement": "T wave abnormalities developed", "setting": "[1]; 36 subjects", "result": 5, "unit": "pts"},
      {"measurement": "Flushing", "setting": "[1]; 400-mcg group", "result": 17, "unit": "%"},
      {"measurement": "dizziness", "setting": "[1]; 400-mcg group", "result": 11, "unit": "%"},
      {"measurement": "dyspnea", "setting": "[1]; 400-mcg group", "result": 17, "unit": "%"},
      {"measurement": "mean change in HR response", "setting": "[1]; 400 mcg dose", "result": 34.8, "unit": "%"},
      {"measurement": "Flushing", "setting": "[1]; 500-mcg group", "result": 44, "unit": "%"},
      {"measurement": "dizziness", "setting": "[1]; 500-mcg group", "result": 28, "unit": "%"},
      {"measurement": "dyspnea", "setting": "[1]; 500-mcg group", "result": 44, "unit": "%"},
      {"measurement": "mean change in HR response", "setting": "[1]; 500 mcg dose", "result": 44.2, "unit": "%"},
      {"measurement": "BP changes deviated from baseline", "setting": "[1]; Thirty min after CVT-3146", "result": "< 2", "unit": "%"},
      {"measurement": "HR remained above baseline by", "setting": "[1]; Thirty min after CVT-3146", "result": 8.6, "unit": "%"},
      {"measurement": "abdominal pain", "setting": "[1]; both doses, 36 subjects", "result": 11, "unit": "%"},
      {"measurement": "chest discomfort", "setting": "[1]; both doses, 36 subjects", "result": 33, "unit": "%"},
      {"measurement": "headache", "setting": "[1]; both doses, 36 subjects", "result": 25, "unit": "%"},
      {"measurement": "systolic BP did not fall below", "setting": "[1]; either dose", "result": "≥ 90", "unit": "mmHg"},
      {"measurement": "serious AE occurred", "setting": "[1]; exacerbation of a migraine headache, required hospitalization", "result": "One"},
      {"measurement": "2nd or 3rd degree AV block", "setting": "[1]; in vivo", "result": "No 2nd or 3rd degree AV block was noted"},
      {"measurement": "serious arrhythmias", "setting": "[1]; in vivo", "result": "no serious arrhythmias"},
      {"measurement": "time of peak hemodynamic effect, diastolic BP", "setting": "[1]; in vivo", "result": 8, "unit": "min"},
      {"measurement": "time of peak hemodynamic effect, heart rate (HR)", "setting": "[1]; in vivo", "result": "≤ 0.033", "unit": "h"},
      {"measurement": "time of peak hemodynamic effect, systolic blood pressure (BP)", "setting": "[1]; in vivo", "result": 4, "unit": "min"},
      {"measurement": "Diastolic BP, Absolute Change", "setting": "[1]; [3]", "result": "-5.4±7.2", "unit": "mmHg"},
      {"measurement": "Diastolic BP, Relative Change", "setting": "[1]; [3]", "result": "-7.9%±10.5%"},
      {"measurement": "Heart Rate, Absolute Change", "setting": "[1]; [3]", "result": "+21.9±10.4 beats per min"},
      {"measurement": "Heart Rate, Relative Change", "setting": "[1]; [3]", "result": "+36.7%+21.0%"},
      {"measurement": "Systolic BP, Absolute Change", "setting": "[1]; [3]", "result": "-5.9±10.7", "unit": "mmHg"},
      {"measurement": "Systolic BP, Relative Change", "setting": "[1]; [3]", "result": "4.1%±7.6%"},
      {"measurement": "AEs mild to moderate", "setting": "[1]; share of AEs", "result": 96, "unit": "%"},
      {"measurement": "AEs resolved within 15 min without treatment", "setting": "[1]; share of AEs", "result": 91, "unit": "%"},
      {"measurement": "summed scores following stress, quantitative methods of analysis", "setting": "[2]; SPECT MPI, 4D MSPECT, CVT-3146 400 or 500 mcg IV bolus, A infusion", "result": "13.6±1.6"},
      {"measurement": "summed scores following stress, visual", "setting": "[2]; SPECT MPI, 17-segment model, CVT-3146 400 or 500 mcg IV bolus, A infusion", "result": "13.2±1.3"},
      {"measurement": "regional concordance for ischemia extent", "setting": "[2]; [4]", "result": 86.3, "unit": "%"},
      {"measurement": "regional concordance for ischemia severity", "setting": "[2]; [4]", "result": 83.4, "unit": "%"},
      {"measurement": "duration of CBFv augmentation (≥ 2-fold increase in CBFv)", "setting": "humans; 300 µg IV bolus", "result": "4.0 ± 4.9", "unit": "min"},
      {"measurement": "duration of CBFv augmentation (≥ 2-fold increase in CBFv)", "setting": "humans; 500 µg IV bolus", "result": "6.9 ± 7.6", "unit": "min"},
      {"measurement": "maximal decrease in systolic blood pressure (BP)", "setting": "humans; 500 µg IV bolus (n=3)", "result": "8.7 ± 7.6"},
      {"measurement": "maximal increase in heart rate (HR)", "setting": "humans; 500 µg IV bolus (n=3)", "result": "18.7 ± 4.0"},
      {"measurement": "Adverse events (AEs)", "setting": "humans; 3 patients receiving the 500 µg dose", "result": "No AEs were noted"},
      {"measurement": "Adverse events (AEs)", "setting": "humans; 10-500 µg IV bolus, nausea, flushing, headache, mild and self-limited", "result": "infrequent"},
      {"measurement": "peak to baseline ratio (CBFv)", "setting": "humans; IV bolus, doses of 100 µg (n=3), 300 µg (n=4) and 500 µg (n=2), mean ± SD", "result": "3.2 ± 0.6"},
      {"measurement": "more potent than adenosine (Ado) in increasing coronary blood flow velocity (CBFv)", "setting": "awake dogs", "result": "> 100", "unit": "fold"},
      {"measurement": "increase in HR", "setting": "awake rats; CVT-3146 alone", "result": "27±3", "unit": "%"},
      {"measurement": "decrease in BP", "setting": "awake rats; CVT-3146 alone (comparison with ZM241385)", "result": "14±3", "unit": "%"},
      {"measurement": "BP (change)", "setting": "awake rats; CVT-3146 alone (comparison with hexamethonium)", "result": "-11±2", "unit": "%"},
      {"measurement": "solubility", "setting": "solubility in water", "result": "~50", "unit": "µg/mL"}
    ]}
  ]
}
